Like-named read-outs stand apart in the source and are kept apart here. Some results are limits rather than exact numbers.

The target in the test is T1, Human Glucocorticoid Receptor (hGR) (Homo sapiens, UniProt P04150).
T1 construct: the resultant supernatant (=cytosol of IM9 cells) was centrifuged at 103,000 g for 60 minutes; host or cells: IM9 human lymphoblast cell line (cytosol fraction)
T1 sequence (P04150 1-777): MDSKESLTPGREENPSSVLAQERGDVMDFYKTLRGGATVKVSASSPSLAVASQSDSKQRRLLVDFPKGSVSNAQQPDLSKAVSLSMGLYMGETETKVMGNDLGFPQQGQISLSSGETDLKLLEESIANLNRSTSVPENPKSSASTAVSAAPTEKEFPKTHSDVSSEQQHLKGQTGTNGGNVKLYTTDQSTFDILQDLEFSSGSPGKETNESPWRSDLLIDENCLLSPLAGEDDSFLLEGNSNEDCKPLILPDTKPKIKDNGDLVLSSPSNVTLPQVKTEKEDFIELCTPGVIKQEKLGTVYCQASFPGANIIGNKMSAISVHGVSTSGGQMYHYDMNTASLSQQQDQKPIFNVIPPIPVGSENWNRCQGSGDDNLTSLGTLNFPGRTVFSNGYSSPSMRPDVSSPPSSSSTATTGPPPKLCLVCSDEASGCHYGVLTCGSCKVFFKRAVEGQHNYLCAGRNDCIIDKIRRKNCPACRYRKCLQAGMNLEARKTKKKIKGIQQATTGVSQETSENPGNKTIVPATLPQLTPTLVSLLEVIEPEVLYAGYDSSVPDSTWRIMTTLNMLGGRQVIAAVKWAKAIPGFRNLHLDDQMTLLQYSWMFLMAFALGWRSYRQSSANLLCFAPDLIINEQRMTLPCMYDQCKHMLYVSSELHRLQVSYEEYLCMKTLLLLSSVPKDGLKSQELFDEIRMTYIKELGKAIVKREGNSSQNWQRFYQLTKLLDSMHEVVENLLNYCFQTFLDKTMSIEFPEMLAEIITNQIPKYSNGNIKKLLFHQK
Nature of the test: Human Glucocorticoid Receptor (hGR) Ligand-Binding Assay (competitive 3H-dexamethasone binding, IM9 cytosol). The conditions noted are these: read-out: % inhibition hGR at 1 μM. The source says:
Human Glucocorticoid Receptor (hGR) Ligand-Binding Assay
Potential selective glucocorticoid receptor modulators of this intervention can be tested for their binding affinity at the glucocorticoid receptor using the binding assay described below.
Preferably, the glucocortitcoid receptor extracted from cytosol of IM9 cells is used for competitive radioligand binding assays to calculate the IC50 values and binding affinity (Ki value) of the compounds according to the present invention. Preferably, a fixed concentration of the radioligand 3H-dexamethasone and a range of concentrations of compounds according to the present invention (as unlabeled competitors of dexamethasone) are mixed with the extracted glucocorticoid receptor in order to measure the potency/affinity with which they compete for the binding of the radioligand. Preferably, by using competition curves the IC50 which is the concentration of competing ligand that displaces 50% of the specific binding of the radioligand is determined. Finally this IC50 value is converted to a Ki value.
The human lymphoblast cell line IM9 (ATCC, Bethesda, Md.) were cultivated in RPMI 1640 media containing 10% fetal bovine serum, penicillin (100 U/ml), streptomycin (100 μg/ml), and 2 mM L-glutamine at […] and 7% CO2 in a humidified incubator. Cells were centrifuged for 10 minutes at 1500 g and were washed in PBS and repelleted. Cell were then resuspended in homogenization buffer consisting of: 10 mM TES, 10 mM sodium molybdate, 1 mM EDTA, pH 7.4, 20 mM 2-mercaptoethanol, and 10% glycerol. Disruption of the cells was performed by nitrogen cavitation using 2×15 minutes at 600 to 750 psi nitrogen in a N2 cavitator at 0° C. The cell preparation was then centrifuged at 27,000 g for 15 minutes, and the resultant supernatant (=cytosol of IM9 cells) was centrifuged at 103,000 g for 60 minutes at 4° C. The amount of protein in the supernatant fraction was determined using a BCA assay kit and aliquots were snap frozen in a dry ice-acetone bath and stored at −70° C. Competitive binding assays were done in duplicate in homogenization buffer with a total volume of 200 μl. To this end, 1 mg of IM9 cytosol, 0.05 μCi (1.5 nM) of 3H-dexamethasone […] and compounds according to the present invention (=unlabeled competitors of dexamethasone; range of concentrations) were mixed. The reaction was stopped after incubation at 0° C. for 16 to 18 hours by the addition of 100 μl of a charcoal-dextran mixture (2% activated charcoal, 0.5% dextran in 10 mM Tris, 1 mM EDTA, pH 7.4). Another incubation step at 0° C. for 10 minutes followed before the samples were centrifuged for 5 minutes at 8200 g. 100 μl of the supernatant) was finally assayed for radioactivity by liquid scintillationspectrometry, and the IC50 values were determined graphically and were converted to Ki values.

Setting [1] is: compound at 1 μM, competition with 3H-dexamethasone, cytosol of IM9 cells.

Broadly, the inhibition is the relative decrease from the control value, in per cent. Regarding `Cn1cc(-n2ncc3cc(N4C(=O)C[C@H](NC(=O)c5cocn5)[C@H]4c4ccccc4)ccc32)ccc1=O` [Example 50, N-[(2R,3S)-1-[1-(1-methyl-6-oxo-3-pyridyl)indazol-5-yl]-5-oxo-2-phenyl-pyrrolidin-3-yl]oxazole-4-carboxamide], the inhibition at 1 µM under setting [1] lay in the range of 60 to 85%.
As to `CC(F)(F)C(=O)N[C@H]1CC(=O)N(c2ccc3c(cnn3-c3ncc(F)cn3)c2)C1c1ccccc1` (stereo in doubt) [Example 47, N-(trans-1-(1-(5-fluoropyrimidin-2-yl)-1H-indazol-5-yl)-5-oxo-2-phenylpyrrolidin-3-yl)-2,2-difluoropropanamide], the inhibition at 1 µM lay within 60 to 85%.
With `Cn1cc(Cn2ncc3cc(N4C(=O)C[C@H](NC(=O)C(C)(F)F)C4c4ccccc4)ccc32)ccc1=O` (stereo in doubt) [Example 34, trans-2,2-difluoro-N-(1-(1-((1-methyl-6-oxo-1,6-dihydropyridin-3-yl)methyl)-1H-indazol-5-yl)-5-oxo-2-phenylpyrrolidin-3-yl)propanamide], the inhibition at 1 µM under setting [1] fell in the range of 40 to 60%.
In the case of `Cc1cc(-n2ncc3cc(N4C(=O)C[C@H](NC(=O)C(C)(F)F)C4c4ccccc4)ccc32)ccn1` (stereo in doubt) [Example 25, trans-2,2-difluoro-N-(1-(1-(2-methylpyridin-4-yl)-1H-indazol-5-yl)-5-oxo-2-phenylpyrrolidin-3-yl)propanamide], the inhibition at 1 µM is over 85%.
As to `Cn1ccc(Cn2ncc3cc(N4C(=O)C[C@H](NC(=O)C(C)(F)F)C4c4ccccc4)ccc32)cc1=O` (stereo in doubt) [Example 38, trans-2,2-difluoro-N-(1-(1-((1-methyl-2-oxo-1,2-dihydropyridin-4-yl)methyl)-1H-indazol-5-yl)-5-oxo-2-phenylpyrrolidin-3-yl)propanamide], the inhibition at 1 µM under setting [1] is 60 to 85%.
In the case of `CC(F)(F)C(=O)N[C@H]1CC(=O)N(c2ccc3c(cnn3-c3ccc(F)cn3)c2)C1c1ccccc1` (stereo in doubt) [Example 9, trans-2,2-difluoro-N-(1-(1-(5-fluoropyridin-2-yl)-1H-indazol-5-yl)-5-oxo-2-phenylpyrrolidin-3-yl)propanamide], the inhibition at 1 µM is over 85%.
With `Cn1cc(-n2ncc3cc(N4C(=O)C[C@H](NC(=O)C(C)(F)F)C4c4ccccc4)ccc32)cn1` (stereo in doubt) [Example 46, N-(trans-1-(1-(1-methyl-1H-pyrazol-4-yl)-1H-indazol-5-yl)-5-oxo-2-phenylpyrrolidin-3-yl)-2,2-difluoropropanamide], the inhibition at 1 µM is over 85%.
`Cc1cnc(C(=O)N[C@H]2CC(=O)N(c3ccc4c(cnn4-c4ccc(=O)n(C)c4)c3)[C@@H]2c2ccccc2)s1` (relative stereo) [Example 13, 5-methyl-N-(trans-1-(1-(1-methyl-6-oxo-1,6-dihydropyridin-3-yl)-1H-indazol-5-yl)-5-oxo-2-phenylpyrrolidin-3-yl)thiazole-2-carboxamide]: under setting [1], the inhibition at 1 µM was over 85%.
For the molecule `COc1cc(-n2ncc3cc(N4C(=O)C[C@H](NC(=O)C(C)(F)F)C4c4ccccc4)ccc32)ccn1` (stereo in doubt) [Example 27, trans-2,2-difluoro-N-(1-(1-(2-methoxypyridin-4-yl)-1H-indazol-5-yl)-5-oxo-2-phenylpyrrolidin-3-yl)propanamide], the inhibition at 1 µM is 60 to 85%.
Take `Cc1ccccc1[C@@H]1[C@@H](NC(=O)C2CC2)CC(=O)N1c1ccc2c(cnn2-c2ccc(=O)n(C)c2)c1` [Example 41, N-((2R,3S)-1-(1-(1-methyl-6-oxo-1,6-dihydropyridin-3-yl)-1H-indazol-5-yl)-5-oxo-2-(o-tolyl)pyrrolidin-3-yl)cyclopropanecarboxamide]: the inhibition at 1 µM under setting [1] fell in the range of 40 to 60%.
As to `Cn1ccc(C(=O)N[C@H]2CC(=O)N(c3ccc4c(cnn4-c4ccc(=O)n(C)c4)c3)[C@@H]2c2ccccc2)n1` [Example 45, 1-methyl-N-[(2R,3S)-1-[1-(1-methyl-6-oxo-3-pyridyl)indazol-5-yl]-5-oxo-2-phenyl-pyrrolidin-3-yl]pyrazole-3-carboxamide], under setting [1], the inhibition at 1 µM is 60 to 85%.
On to `Cc1ccc(-n2ncc3cc(N4C(=O)C[C@H](NC(=O)C(C)(F)F)C4c4ccccc4)ccc32)cn1` (stereo in doubt) [Example 24, trans-2,2-difluoro-N-(1-(1-(6-methylpyridin-3-yl)-1H-indazol-5-yl)-5-oxo-2-phenylpyrrolidin-3-yl)propanamide], for which the inhibition at 1 µM was in the range of 60 to 85%.
Regarding `COc1ccc(-n2ncc3cc(N4C(=O)C[C@H](NC(=O)C(C)(F)F)C4c4ccccc4)ccc32)cn1` (stereo in doubt) [Example 22, trans-2,2-difluoro-N-(1-(1-(6-methoxypyridin-3-yl)-1H-indazol-5-yl)-5-oxo-2-phenylpyrrolidin-3-yl)propanamide], the inhibition at 1 µM under setting [1] lay in the range of 60 to 85%.
Same read-out and setting: then `Cn1cc(-n2ncc3cc(N4C(=O)C[C@H](NC(=O)c5cscn5)[C@H]4c4ccccc4)ccc32)ccc1=O` [Example 44, N-[(2R,3S)-1-[1-(1-methyl-6-oxo-3-pyridyl)indazol-5-yl]-5-oxo-2-phenyl-pyrrolidin-3-yl]thiazole-4-carboxamide], with 60 to 85%; and `Cn1cc(-n2ncc3cc(N4C(=O)C[C@H](NC(=O)[C@H]5CCCO5)[C@H]4c4ccccc4)ccc32)ccc1=O` [Example 48, (R)—N-[(2R,3S)-1-[1-(1-methyl-6-oxo-3-pyridyl)indazol-5-yl]-5-oxo-2-phenyl-pyrrolidin-3-yl]tetrahydrofuran-2-carboxamide], with 60 to 85%.
The same measure, in the same setting: as for `Cn1cc(-n2ncc3cc(N4C(=O)C[C@H](NC(=O)C(C)(F)F)C4c4ccc5c(c4)OCCO5)ccc32)ccc1=O` (stereo in doubt) [Example 3, trans-2,2-difluoro-N-(5-oxo-2-(2,3-dihydrobenzo[b][1,4]dioxin-6-yl)-1-(1-(1-methyl-6-oxo-1,6-dihydropyridin-3-yl)-1H-indazol-5-yl)pyrrolidin-3-yl)propanamide], the figure is over 85%; as for `Cc1ccccc1[C@@H]1[C@@H](NC(=O)C(C)(F)F)CC(=O)N1c1ccc2c(cnn2-c2ccc(=O)n(C)c2)c1` [Example 43, 2,2-difluoro-N-((2R,3S)-1-(1-(1-methyl-6-oxo-1,6-dihydropyridin-3-yl)-1H-indazol-5-yl)-5-oxo-2-(o-tolyl)pyrrolidin-3-yl)propanamide], over 85%.
The same measure, in the same setting: as for `Cn1ccc(Cn2ncc3cc(N4C(=O)C[C@H](NC(=O)C(C)(F)F)C4c4ccccc4)ccc32)n1` (stereo in doubt) [Example 32, trans-2,2-difluoro-N-(1-(1-((1-methyl-1H-pyrazol-3-yl)methyl)-1H-indazol-5-yl)-5-oxo-2-phenylpyrrolidin-3-yl)propanamide], the figure is 60 to 85%.

Values taken from patent US10626106B2, “Substituted pyrrolidine amides I” (Gruenenthal GmbH, priority 2017, dated 2020).
